Measured values published in ChEMBL document CHEMBL1201862, “PubChem BioAssay data set” (2004).
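Cultured in 96-well plates, cells were exposed to test compound for 48 hours across five concentrations. Here, GI50 denotes the concentration required for 50% inhibition of growth.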 Calls of active or inactive are those of the source. No stated cut-off is given here; in the data, active = GI50 up to about 1.1 µM and inactive = higher.

Key:
Assay in all cases: NCI-60 cell line screen, 48 h
IGROV-1 = system: IGROV-1
NCI-H460 = system: NCI-H460
EKVX = system: EKVX
PC-3 = system: PC-3
NCI-H23 = system: NCI-H23
UO-31 = system: UO-31
SNB-19 = system: SNB-19
UACC-257 = system: UACC-257
U-251 = system: U-251
RXF 393 = system: RXF 393
Malme-3M = system: Malme-3M
UACC-62 = system: UACC-62
RPMI-8226 = system: RPMI-8226
OVCAR-4 = system: OVCAR-4
SF-295 = system: SF-295
SF-268 = system: SF-268
LOX IMVI = system: LOX IMVI
786-0 = system: 786-0
HCC 2998 = system: HCC 2998
CAKI-1 = system: CAKI-1
OVCAR-8 = system: OVCAR-8
SK-MEL-2 = system: SK-MEL-2
COLO 205 = system: COLO 205
BT-549 = system: BT-549
M14 = system: M14
CCRF-CEM = system: CCRF-CEM
SF-539 = system: SF-539
NCI-H226 = system: NCI-H226
SN12C = system: SN12C
HOP-62 = system: HOP-62
HL-60 = system: HL-60
NCI/ADR-RES = system: NCI/ADR-RES
KM12 = system: KM12
A549 = system: A549
SW-620 = system: SW-620
TK-10 = system: TK-10
MOLT-4 = system: MOLT-4
NCI-H522 = system: NCI-H522
HCT-15 = system: HCT-15
ACHN = system: ACHN
Hs-578T = system: Hs-578T
DU-145 = system: DU-145
OVCAR-5 = system: OVCAR-5
MDA-N = system: MDA-N
SK-OV-3 = system: SK-OV-3
MDA-MB-435 = system: MDA-MB-435
MDA-MB-231 = system: MDA-MB-231
MCF7 = system: MCF7
HCT-116 = system: HCT-116
HT-29 = system: HT-29
K562 = system: K562
T47D = system: T47D
HOP-92 = system: HOP-92
OVCAR-3 = system: OVCAR-3
SK-MEL-5 = system: SK-MEL-5
SNB-75 = system: SNB-75
SK-MEL-28 = system: SK-MEL-28
SR = system: SR
A498 = system: A498

## Nc1ccn(C2CCC(COP(=O)(O)OCC(O)COP(=O)(O)OCC3OC(n4cc(F)c(=O)[nH]c4=O)CC3O)O2)c(=O)n1 (configuration not stated)
IGROV-1
  GI50: 11.2 µM (inactive)
NCI-H460
  GI50: < 0.01 µM (active)
EKVX
  GI50: > 75.9 µM (inactive)
PC-3
  GI50: 2.01 µM (inactive)
NCI-H23
  GI50: 0.139 µM (active)
UO-31
  GI50: 0.0622 µM (active)
SNB-19
  GI50: 0.211 µM (active)
UACC-257
  GI50: > 100 µM (inactive)
U-251
  GI50: 1.04 µM (active)
RXF 393
  GI50: 3.33 µM (inactive)
Malme-3M
  GI50: > 53.8 µM (inactive)
UACC-62
  GI50: 0.136 µM (active)
RPMI-8226
  GI50: 10.4 µM (inactive)
OVCAR-4
  GI50: > 23.7 µM (inactive)
SF-295
  GI50: 0.0459 µM (active)
SF-268
  GI50: 0.0101 µM (active)
LOX IMVI
  GI50: < 0.0149 µM (active)
786-0
  GI50: > 76.4 µM (inactive)
HCC 2998
  GI50: 0.656 µM (active)
CAKI-1
  GI50: 0.316 µM (active)
OVCAR-8
  GI50: 0.157 µM (active)
SK-MEL-2
  GI50: 75.3 µM (inactive)
COLO 205
  GI50: 8.3 µM (inactive)
BT-549
  GI50: 3.09 µM (inactive)
M14
  GI50: 0.473 µM (active)
CCRF-CEM
  GI50: 0.124 µM (active)
SF-539
  GI50: 0.0216 µM (active)
NCI-H226
  GI50: > 100 µM (inactive)
SN12C
  GI50: 0.135 µM (active)
HOP-62
  GI50: 0.232 µM (active)
HL-60
  GI50: 0.0716 µM (active)
NCI/ADR-RES
  GI50: 0.215 µM (active)
KM12
  GI50: > 38.1 µM (inactive)
A549
  GI50: 0.386 µM (active)
SW-620
  GI50: > 100 µM (inactive)
TK-10
  GI50: 5.14 µM (inactive)
MOLT-4
  GI50: 0.102 µM (active)
NCI-H522
  GI50: 0.628 µM (active)
HCT-15
  GI50: 14.4 µM
ACHN
  GI50: < 0.0106 µM (active)
Hs-578T
  GI50: 1.96 µM (inactive)
DU-145
  GI50: 0.165 µM (active)
OVCAR-5
  GI50: 9.93 µM (inactive)
MDA-N
  GI50: 8.34 µM (inactive)
SK-OV-3
  GI50: 59.2 µM (inactive)
MDA-MB-435
  GI50: 14.8 µM (inactive)
MDA-MB-231
  GI50: 44.1 µM (inactive)
MCF7
  GI50: < 0.01 µM (active)
HCT-116
  GI50: 0.581 µM (active)
HT-29
  GI50: 2.79 µM (inactive)
K562
  GI50: 2.61 µM (inactive)
T47D
  GI50: 1.42 µM (inactive)
HOP-92
  GI50: 0.0419 µM (active)
OVCAR-3
  GI50: 23.2 µM (inactive)
SK-MEL-5
  GI50: 0.514 µM (active)
SNB-75
  GI50: 3.54 µM (inactive)
SK-MEL-28
  GI50: 26.4 µM (inactive)

## NCCCC[C@H](N)C(=O)Nc1ccc(-c2nc3ccccc3s2)cc1
IGROV-1
  GI50: 16.7 µM (inactive)
NCI-H460
  GI50: 16.9 µM (inactive)
EKVX
  GI50: 10.1 µM (inactive)
PC-3
  GI50: 25.6 µM (inactive)
NCI-H23
  GI50: 25.6 µM (inactive)
UO-31
  GI50: 12.7 µM (inactive)
SNB-19
  GI50: 16.7 µM (inactive)
UACC-257
  GI50: 70 µM (inactive)
U-251
  GI50: 14.3 µM (inactive)
RXF 393
  GI50: 33.2 µM (inactive)
Malme-3M
  GI50: 19.4 µM (inactive)
UACC-62
  GI50: 21.7 µM (inactive)
OVCAR-4
  GI50: 36.2 µM (inactive)
SF-295
  GI50: 15.7 µM (inactive)
SF-268
  GI50: 23.2 µM (inactive)
LOX IMVI
  GI50: 24.8 µM (inactive)
786-0
  GI50: 18.1 µM (inactive)
HCC 2998
  GI50: 26.7 µM (inactive)
CAKI-1
  GI50: 37.9 µM (inactive)
OVCAR-8
  GI50: 19.8 µM (inactive)
SK-MEL-2
  GI50: 29.1 µM (inactive)
COLO 205
  GI50: 18.7 µM (inactive)
BT-549
  GI50: 28.6 µM (inactive)
M14
  GI50: 12.6 µM (inactive)
CCRF-CEM
  GI50: 9.89 µM (inactive)
NCI-H226
  GI50: 25.6 µM (inactive)
SR
  GI50: 18.4 µM (inactive)
SN12C
  GI50: 24.8 µM (inactive)
HOP-62
  GI50: 25.1 µM (inactive)
NCI/ADR-RES
  GI50: 21.6 µM (inactive)
KM12
  GI50: 18.5 µM (inactive)
A549
  GI50: 31.2 µM (inactive)
SW-620
  GI50: 16.9 µM (inactive)
TK-10
  GI50: 57.7 µM (inactive)
MOLT-4
  GI50: 16.2 µM (inactive)
NCI-H522
  GI50: 17 µM (inactive)
HCT-15
  GI50: 17.4 µM
A498
  GI50: 22.1 µM (inactive)
ACHN
  GI50: 20.3 µM (inactive)
Hs-578T
  GI50: 23.1 µM (inactive)
DU-145
  GI50: 21.7 µM (inactive)
OVCAR-5
  GI50: 14.9 µM (inactive)
MDA-N
  GI50: 15.7 µM (inactive)
SK-OV-3
  GI50: 21.1 µM (inactive)
MDA-MB-435
  GI50: 18.7 µM (inactive)
MDA-MB-231
  GI50: 15.1 µM (inactive)
HCT-116
  GI50: 19 µM (inactive)
HT-29
  GI50: 16.5 µM (inactive)
K562
  GI50: 19.6 µM (inactive)
T47D
  GI50: 33.7 µM (inactive)
HOP-92
  GI50: 34.7 µM (inactive)
OVCAR-3
  GI50: 20.4 µM (inactive)
SK-MEL-5
  GI50: 33.4 µM (inactive)
SNB-75
  GI50: 16.8 µM (inactive)
SK-MEL-28
  GI50: 19.7 µM (inactive)
